Reference: ChEMBL document CHEMBL5154935, “Design, Synthesis, and Biological Evaluation of Novel Evodiamine Derivatives as Potential Antihepatocellular Carcinoma Agents” (J Med Chem, 2022)
Calls of active or inactive are those of the source. No cut-off for these calls is given here.

Assays:
[1] = tested on: SK-HEP1; test: Induction of cell cycle arrest in human SK-Hep1 cells assessed as accumulation at S phase at 80 nM treated for 24 hrs by PI staining based flow cytometry (reference value: 24.98 %); format: functional
[2] = tested on: SK-HEP1; test: Induction of apoptosis in human SK-Hep1 cells assessed as early apoptotic cells at 80 nM incubated for 24 hrs by annexin V-FITC/PI staining flow cytometry (reference value: 0.30 %); format: functional
[3] = molecular target: T1, DNA topoisomerase 1 (Homo sapiens) (UniProt P11387); test: Inhibition of Top1 (unknown origin) assessed as inhibition of relaxation of supercoiled pBR322 plasmid DNA at 12.5 uM incubated for 25 mins by ethidium bromide staining based agarose gel electrophoresis analysis relative to control
T1 sequence (whole entry): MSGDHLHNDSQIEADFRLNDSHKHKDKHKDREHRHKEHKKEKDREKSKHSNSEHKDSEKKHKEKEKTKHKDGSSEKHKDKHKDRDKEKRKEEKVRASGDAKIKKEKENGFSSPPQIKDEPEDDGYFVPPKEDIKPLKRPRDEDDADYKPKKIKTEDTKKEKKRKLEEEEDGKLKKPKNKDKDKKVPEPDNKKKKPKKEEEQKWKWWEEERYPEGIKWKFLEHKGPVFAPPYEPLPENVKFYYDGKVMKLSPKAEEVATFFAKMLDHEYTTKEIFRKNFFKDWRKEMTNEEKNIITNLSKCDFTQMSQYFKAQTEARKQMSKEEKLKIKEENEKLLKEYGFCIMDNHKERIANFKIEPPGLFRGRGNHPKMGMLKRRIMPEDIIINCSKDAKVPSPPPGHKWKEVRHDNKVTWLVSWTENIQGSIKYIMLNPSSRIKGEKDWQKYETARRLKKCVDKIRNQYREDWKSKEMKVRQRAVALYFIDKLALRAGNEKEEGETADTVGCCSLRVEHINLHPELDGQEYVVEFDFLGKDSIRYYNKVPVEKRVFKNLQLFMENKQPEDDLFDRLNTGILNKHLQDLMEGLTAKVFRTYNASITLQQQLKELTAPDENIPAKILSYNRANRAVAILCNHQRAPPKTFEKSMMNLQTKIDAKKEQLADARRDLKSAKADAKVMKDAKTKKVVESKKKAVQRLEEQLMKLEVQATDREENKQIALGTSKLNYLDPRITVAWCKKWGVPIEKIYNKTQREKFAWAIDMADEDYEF

[4] = Induction of apoptosis in rat HSC-T6 cells assessed as late apoptotic cells at 80 nM pretreated with TGFbeta-1 for 1 day followed by compound addition and measured after 24 hrs by flow cytometry (reference value: 1.76 %); format: functional
[5] = tested on: Huh-7; test: Induction of apoptosis in human Huh-7 cells assessed as viable cells at 80 nM incubated for 24 hrs by annexin V-FITC/PI staining flow cytometry (reference value: 97.3 %); format: functional; settings: read-out: Activity
[6] = tested on: HCCLM9; test: Antiproliferative activity against human HCCLM9 cells treated for 72 hrs by MTT assay; format: functional, cell-based; settings: HCCLM9, 72 h
[7] = tested on: SMMC-7721; test: Antiproliferative activity against human SMMC-7721 cells treated for 72 hrs by MTT assay; format: functional, cell-based; settings: SMMC-7721, 72 h
[8] = tested on: SK-HEP1; test: Induction of cell cycle arrest in human SK-Hep1 cells assessed as accumulation at G2 phase at 80 nM treated for 24 hrs by PI staining based flow cytometry (reference value: 16.55 %); format: functional
[9] = tested on: Huh-7; test: Antiproliferative activity against human Huh-7 cells treated for 72 hrs by MTT assay; format: functional, cell-based; settings: Huh-7, 72 h
[10] = tested on: SK-HEP1; test: Induction of apoptosis in human SK-Hep1 cells assessed as necrotic cells at 80 nM incubated for 24 hrs by annexin V-FITC/PI staining flow cytometry (reference value: 0.73 %); format: functional
[11] = tested on: Huh-7; test: Induction of cell cycle arrest in human Huh-7 cells assessed as accumulation at S phase at 80 nM treated for 24 hrs by PI staining based flow cytometry (reference value: 23.33 %); format: functional
[12] = Induction of apoptosis in rat HSC-T6 cells assessed as viable cells at 80 nM pretreated with TGFbeta-1 for 1 day followed by compound addition and measured after 24 hrs by flow cytometry (reference value: 97.5 %); format: functional; settings: read-out: Activity
[13] = Induction of apoptosis in rat HSC-T6 cells assessed as necrotic cells at 80 nM pretreated with TGFbeta-1 for 1 day followed by compound addition and measured after 24 hrs by flow cytometry (reference value: 0.56 %); format: functional
[14] = tested on: Huh-7; test: Induction of apoptosis in human Huh-7 cells assessed as late apoptotic cells at 80 nM incubated for 24 hrs by annexin V-FITC/PI staining flow cytometry (reference value: 1.33 %); format: functional
[15] = molecular target: DNA topoisomerase 2-alpha (Homo sapiens) (UniProt P11388); test: Inhibition of human Top2-alpha expressed in baculovirus assessed as inhibition of relaxation of supercoiled pBR322 plasmid DNA at 100 uM incubated for 30 mins in presence of ATP by ethidium bromide staining based agarose gel electrophoresis analysis relative to control
[16] = tested on: SK-HEP1; test: Antiproliferative activity against human SK-HEP1 cells treated for 72 hrs by MTT assay; format: functional, cell-based; settings: SK-HEP1, 72 h
[17] = tested on: SK-HEP1; test: Induction of apoptosis in human SK-Hep1 cells assessed as late apoptotic cells at 80 nM incubated for 24 hrs by annexin V-FITC/PI staining flow cytometry (reference value: 1.13 %); format: functional
[18] = tested on: HepG2; test: Antiproliferative activity against human HepG2 cells treated for 72 hrs by MTT assay; format: functional, cell-based; settings: HepG2, 72 h
[19] = tested on: Huh-7; test: Induction of cell cycle arrest in human Huh-7 cells assessed as accumulation at G1 phase at 80 nM treated for 24 hrs by PI staining based flow cytometry (reference value: 60.77 %); format: functional
[20] = tested on: Huh-7; test: Induction of cell cycle arrest in human Huh-7 cells assessed as accumulation at G2 phase at 80 nM treated for 24 hrs by PI staining based flow cytometry (reference value: 15.90 %); format: functional
[21] = molecular target: T1, DNA topoisomerase 1 (Homo sapiens); test: Inhibition of Top1 (unknown origin) assessed as inhibition of relaxation of supercoiled pBR322 plasmid DNA at 50 uM incubated for 25 mins by ethidium bromide staining based agarose gel electrophoresis analysis relative to control
[22] = tested on: Huh-7; test: Induction of apoptosis in human Huh-7 cells assessed as necrotic cells at 80 nM incubated for 24 hrs by annexin V-FITC/PI staining flow cytometry (reference value: 1.08 %); format: functional
[23] = tested on: SK-HEP1; test: Induction of apoptosis in human SK-Hep1 cells assessed as viable cells at 80 nM incubated for 24 hrs by annexin V-FITC/PI staining flow cytometry (reference value: 97.8 %); format: functional; settings: read-out: Activity
[24] = Antiproliferative activity against human L02 cells treated for 72 hrs by MTT assay; format: toxicity, cell-based
[25] = Induction of apoptosis in rat HSC-T6 cells assessed as early apoptotic cells at 80 nM pretreated with TGFbeta-1 for 1 day followed by compound addition and measured after 24 hrs by flow cytometry (reference value: 0.17 %); format: functional
[26] = tested on: Huh-7; test: Induction of apoptosis in human Huh-7 cells assessed as early apoptotic cells at 80 nM incubated for 24 hrs by annexin V-FITC/PI staining flow cytometry (reference value: 0.33 %); format: functional
[27] = tested on: SK-HEP1; test: Induction of cell cycle arrest in human SK-Hep1 cells assessed as accumulation at G1 phase at 80 nM treated for 24 hrs by PI staining based flow cytometry (reference value: 58.47 %); format: functional
[28] = Toxicity in BALB/c mouse xenografted with human Huh-7 cells assessed as reduction in WBC levels at 10 mg/kg, ip qd for 11 days and measured on day 11; format: organism-based; settings: in vivo, 264 h, time 11 day
[29] = tested on: HSC-T6; test: Antiproliferative activity against TGF-beta-1-stimulated rat HSC-T6 cells assessed as suppression of cell proliferation at 6.67 to 60 uM preincubated with TGFbeta-1 for 1 day followed by compound addition and measured after 48 hrs; format: functional, cell-based; settings: dose 6.67-60 µM
[30] = Toxicity in BALB/c mouse xenografted with human Huh-7 cells assessed as histopathological change in heart at 10 mg/kg, ip qd for 11 days and measured after 12 days by hematoxylin and eosin staining based assay; format: organism-based; settings: in vivo, 288 h, time 12 day
[31] = Toxicity in BALB/c mouse xenografted with human Huh-7 cells assessed as histopathological change in liver at 10 mg/kg, ip qd for 11 days and measured after 12 days by hematoxylin and eosin staining based assay; format: organism-based; settings: in vivo, 288 h, time 12 day
[32] = Toxicity in BALB/c mouse xenografted with human Huh-7 cells assessed as histopathological change in spleen at 10 mg/kg, ip qd for 11 days and measured after 12 days by hematoxylin and eosin staining based assay; format: organism-based; settings: in vivo, 288 h, time 12 day
[33] = tested on: Huh-7; test: Antitumor activity against human Huh-7 cells xenografted in BALB/c mouse assessed as reduction in neo-vascularisation at 10 mg/kg, ip qd for 11 days and measured after 12 days by hematoxylin and eosin staining based assay; format: functional, organism-based; settings: time 12.0 day
[34] = Toxicity in BALB/c mouse xenografted with human Huh-7 cells assessed as histopathological change in lung at 10 mg/kg, ip qd for 11 days and measured after 12 days by hematoxylin and eosin staining based assay; format: organism-based; settings: in vivo, 288 h, time 12 day
[35] = Toxicity in BALB/c mouse xenografted with human Huh-7 cells assessed as histopathological change in kidney at 10 mg/kg, ip qd for 11 days and measured after 12 days by hematoxylin and eosin staining based assay; format: organism-based; settings: in vivo, 288 h, time 12 day
[36] = tested on: Huh-7; test: Antitumor activity against human Huh-7 cells xenografted in BALB/c mouse assessed as tumor growth inhibition at 10 mg/kg, ip qd for 11 days and measured every 2 days relative to control; format: functional; settings: Huh-7, 264 h, time 11 day, read-out: TGI

Sequence of DNA topoisomerase 2-alpha (Homo sapiens) (P11388 whole entry): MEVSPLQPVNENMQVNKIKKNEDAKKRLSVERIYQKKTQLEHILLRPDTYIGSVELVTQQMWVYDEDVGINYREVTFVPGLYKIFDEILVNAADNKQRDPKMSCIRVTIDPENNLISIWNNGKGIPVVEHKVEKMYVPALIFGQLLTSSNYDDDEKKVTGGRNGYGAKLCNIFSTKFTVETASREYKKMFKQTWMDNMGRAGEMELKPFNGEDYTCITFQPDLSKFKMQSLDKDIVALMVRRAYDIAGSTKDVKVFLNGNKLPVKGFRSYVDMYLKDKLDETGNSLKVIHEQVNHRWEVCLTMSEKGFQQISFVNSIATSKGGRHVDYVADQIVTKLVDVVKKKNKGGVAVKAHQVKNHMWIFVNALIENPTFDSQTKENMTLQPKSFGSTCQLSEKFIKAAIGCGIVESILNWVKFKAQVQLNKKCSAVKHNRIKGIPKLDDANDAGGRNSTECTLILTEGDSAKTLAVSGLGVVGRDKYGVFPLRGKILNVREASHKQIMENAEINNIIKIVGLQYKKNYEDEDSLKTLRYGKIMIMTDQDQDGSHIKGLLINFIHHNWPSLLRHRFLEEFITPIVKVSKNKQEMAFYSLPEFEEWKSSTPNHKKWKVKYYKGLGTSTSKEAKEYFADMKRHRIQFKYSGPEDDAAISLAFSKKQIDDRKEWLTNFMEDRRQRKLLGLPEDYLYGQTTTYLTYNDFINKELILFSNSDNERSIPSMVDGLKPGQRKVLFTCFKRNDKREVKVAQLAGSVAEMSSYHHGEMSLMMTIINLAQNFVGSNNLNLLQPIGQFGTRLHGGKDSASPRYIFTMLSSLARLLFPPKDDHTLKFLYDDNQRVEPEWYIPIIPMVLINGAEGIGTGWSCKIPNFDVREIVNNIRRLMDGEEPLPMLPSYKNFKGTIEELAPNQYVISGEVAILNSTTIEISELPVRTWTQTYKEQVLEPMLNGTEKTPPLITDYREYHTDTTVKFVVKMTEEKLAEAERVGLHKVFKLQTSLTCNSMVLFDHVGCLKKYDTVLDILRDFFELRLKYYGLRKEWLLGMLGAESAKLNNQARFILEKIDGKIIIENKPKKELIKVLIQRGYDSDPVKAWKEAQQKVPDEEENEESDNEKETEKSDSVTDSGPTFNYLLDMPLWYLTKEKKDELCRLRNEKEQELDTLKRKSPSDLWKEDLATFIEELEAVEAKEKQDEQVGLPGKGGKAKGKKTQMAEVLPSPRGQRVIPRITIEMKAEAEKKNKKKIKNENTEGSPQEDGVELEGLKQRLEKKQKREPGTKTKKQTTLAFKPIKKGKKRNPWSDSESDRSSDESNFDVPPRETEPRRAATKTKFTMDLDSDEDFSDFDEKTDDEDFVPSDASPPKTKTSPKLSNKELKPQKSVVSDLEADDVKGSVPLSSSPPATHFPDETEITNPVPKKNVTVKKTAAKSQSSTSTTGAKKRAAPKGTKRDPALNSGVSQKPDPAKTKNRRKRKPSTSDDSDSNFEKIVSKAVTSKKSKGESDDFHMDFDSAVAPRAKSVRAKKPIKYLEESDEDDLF

SMILES | Activity [1] [%] | Activity [2] [%] | Activity [4] [%] | viability at 0.08 µM [5] [%] | IC50 [6] [nM] | IC50 [7] [nM] | Activity [8] [%] | IC50 [9] [nM] | Activity [10] [%] | Activity [11] [%] | viability at 0.08 µM [12] [%] | Activity [13] [%] | Activity [14] [%] | IC50 [16] [nM] | Activity [17] [%] | IC50 [18] [nM] | Activity [19] [%] | Activity [20] [%] | Activity [22] [%] | viability at 0.08 µM [23] [%] | also measured
CN1c2ccccc2C(=O)N2CCc3c([nH]c4ccccc34)C21 (stereo not given) | 36 | 0.27 | 4.44 | 92 | 9270 | 3040 | 3.57 | 2180 | 1.01 | 23.42 | 94.4 | 0.9 | 5.83 | 2920 | 2.79 | 2670 | 60.65 | 15.93 | 1.64 | 85 | inhibition [3]: 3.67%; inhibition [15]: 48%; inhibition [21]: 63.4%; IC50 at 72 h [24]: 3950 nM; Activity [25]: 0.27%; Activity [26]: 0.57%; Activity [27]: 60.43%; Activity [28]: Toxic
CNC(=O)c1cc(Oc2ccc(NC(=O)Nc3ccc(Cl)c(C(F)(F)F)c3)cc2)ccn1 [SORAFENIB] | 34.1 | 1.01 | 7.47 | 94.6 | 3150 | 2370 | 5.43 | 2600 | 1.32 | 37.84 | 91.5 | 0.85 | 3.94 | 1980 | 3.5 | 2100 | 53 | 9.16 | 1.18 | 94.1 | Activity [29]: Active; Activity [30]: Non-Toxic; Activity [31]: Non-Toxic; Activity [32]: Non-Toxic; Activity [33]: Active; Activity [34]: Non-Toxic; IC50 at 72 h [24]: 5980 nM; Activity [25]: 0.16%; Activity [26]: 0.23%; Activity [35]: Non-Toxic; inhibition in vivo at 10 mg/kg [36]: 46.3%; Activity [27]: 60.47%
